Experiments:
[1] = tested on: patients with intrinsic anthracycline-resistant tumours; experiment: Phase I toxicity (CTC grading), MMRDX as 3 h intravenous infusion once every 4 weeks
Text: Nowadays, anthracyclines play an important role in chemothera- peutic treatment of a wide variety of tumour types. The clinical use of anthracyclines is limited by their toxicity profile, especially irreversible, cumulative dose-related cardiotoxicity, and by intrinsic or acquired resistance of tumours cells. Mechanisms of this resistance consist of several pathways, such as overexpression of drug efflux pumps (i.e. P-glycoprotein), decrease in topoiso- merase II enzyme levels, and increase in cellular detoxifying capacity (Kaye and Merry, 1985; Deffie et al, 1989; de Jong et al, 1990; Ford and Hait, 1990; Roninson, 1997). Morpholinyl anthracyclines, such as methoxymorpholino doxorubicin (MMRDX or PNU-152243), were synthesized in search for new anthracyclines with at least partially novel modes of action, including activity on multidrug-resistant (MDR) tumours. MMRDX is a novel doxorubicin derivative in which the nitrogen atom of the daunosamine is enclosed in a methoxymor- pholino ring (Figure 1). […] The working mechanism of morpholinyl anthracyclines appears to be different from other anthracyclines. Morpholinyl anthracyclines inhibit ribosomal gene transcription as well as topoisomerase I-mediated DNA-cleavage (Wassermann et al, 1988, 1990). […] Metabolic conversion of MMRDX by human liver microsomes and NADPH potentiated the cytotoxicity in an ovarian carcinoma cell line (Lau et al, 1994). […] Therefore, we decided to perform a phase I study with MMRDX administered as a 3 h infusion every 4 weeks in order to try to increase the MTD as compared with bolus administration. In addition, we assessed pharmacokinetics of prolonged MMRDX-infusion. A prolonged methoxymorpholino doxorubicin (PNU- 152243 or MMRDX) infusion schedule in patients with solid tumours: a phase 1 and pharmacokinetic study E Fokkema1 , J Verweij2 , AT van Oosterom3 , DRA Uges1 , R Spinelli4 , O Valota4 , EGE de Vries1 and HJM Groen1 1 Department of Pulmonology, Department of Pharmacy, Department of Internal Medicine, University Hospital Groningen, PO Box 30.001, 9700 RB Groningen, The Netherlands; 2 Rotterdam Cancer Institute and University Hospital, Rotterdam, The Netherlands; 3 University Hospital Leuven, Belgium; 4 Pharmacia & Upjohn, Milan, Italy Summary The aim of this phase I study was to assess feasibility, pharmacokinetics and toxicity of methoxymorpholino doxorubicin (MMRDX or PNU-152243) administered as a 3 h intravenous infusion once every 4 weeks. […] The first cohort of patients was treated with 1 mg m-2 of MMRDX. The next cohorts received 1.25 mg m-2 and 1.5 mg m-2 respectively. […] (c) 2000 Cancer Research Campaign Keywords: methoxymorpholino doxorubicin; pharmacokinetics; phase I study 767 Received 6 January 1999 Revised 2 August 1999 Accepted 25 August 1999 Correspondence to: EGE de Vries British Journal of Cancer (2000) 82(4), 767-771 (c) 2000 Cancer Research Campaign DOI: 10.1054/ bjoc.1999.0996, available online at http://www.idealibrary.com on PATIENTS AND METHODS Patients The study was performed between December 1994 and June 1996. Patients with intrinsic anthracycline-resistant tumours were accrued in three different centres in Belgium and The Netherlands.

MDR xenografts = tested on: MDR xenografts; parameters: method as in Ripamonti et al, 1992; conditions: animal studies, ref Ripamonti et al, 1992; cited from earlier work
[2] = tested on: intrinsically anthracycline-resistant tumours; experiment: Tumour response according to WHO criteria; format: in vivo, human; conditions: 3 h i.v. infusion, 1.0-1.5 mg m-2, 13 evaluable patients
Text: Nowadays, anthracyclines play an important role in chemothera- peutic treatment of a wide variety of tumour types. The clinical use of anthracyclines is limited by their toxicity profile, especially irreversible, cumulative dose-related cardiotoxicity, and by intrinsic or acquired resistance of tumours cells. Mechanisms of this resistance consist of several pathways, such as overexpression of drug efflux pumps (i.e. P-glycoprotein), decrease in topoiso- merase II enzyme levels, and increase in cellular detoxifying capacity (Kaye and Merry, 1985; Deffie et al, 1989; de Jong et al, 1990; Ford and Hait, 1990; Roninson, 1997). Morpholinyl anthracyclines, such as methoxymorpholino doxorubicin (MMRDX or PNU-152243), were synthesized in search for new anthracyclines with at least partially novel modes of action, including activity on multidrug-resistant (MDR) tumours. MMRDX is a novel doxorubicin derivative in which the nitrogen atom of the daunosamine is enclosed in a methoxymor- pholino ring (Figure 1). […] The working mechanism of morpholinyl anthracyclines appears to be different from other anthracyclines. Morpholinyl anthracyclines inhibit ribosomal gene transcription as well as topoisomerase I-mediated DNA-cleavage (Wassermann et al, 1988, 1990). […] In addition, we assessed pharmacokinetics of prolonged MMRDX-infusion. […]

Question: For `COc1cccc2c1C(=O)c1c(O)c3c(c(O)c1C2=O)C[C@@](O)(C(=O)CO)C[C@@H]3O[C@H]1C[C@H](N2CCO[C@H](OC)C2)[C@H](O)[C@H](C)O1` [MMRDX, methoxymorpholino doxorubicin], which Non-haematological toxicity ([1]; 1 mg m-2) is on record?
Answer: did not exceed CTC grade II

Question: What about the “Median (range) nadir of leucocytes over all evaluable cycles” value ([1]; 1.0 mg m-2) of the same compound?
Answer: 6.0 (3.9-15.1) x 109 l-1

Question: And the “Median (range) nadir of neutrophils over all evaluable cycles” value ([1]; 1.0 mg m-2)?
Answer: 3.3 (2.4-12.7) x 109 l-1

Question: And the “Median (range) nadir of platelets over all evaluable cycles” value ([1]; 1.0 mg m-2)?
Answer: 197 (130-356) x 109 1-1

Question: What about the “Neutrophils, CTC grade III toxicity” value ([1]; 1.0 mg m-2, 7 cycles) of the same compound?
Answer: 0 % of total number of cycles

Question: And the “Neutrophils, CTC grade IV toxicity” value ([1]; 1.0 mg m-2, 7 cycles)?
Answer: 0 % of total number of cycles

Question: What about the “Leucocytes, CTC grade III toxicity” value ([1]; 1.0 mg m-2, 8 cycles) of the same compound?
Answer: 0 % of total number of cycles

Question: What about the “Leucocytes, CTC grade IV toxicity” value ([1]; 1.0 mg m-2, 8 cycles) of the same compound?
Answer: 0 % of total number of cycles

Question: And the “Platelets, CTC grade III toxicity” value ([1]; 1.0 mg m-2, 8 cycles)?
Answer: 0 % of total number of cycles

Question: And the “Platelets, CTC grade IV toxicity” value ([1]; 1.0 mg m-2, 8 cycles)?
Answer: 0 % of total number of cycles

Question: What about the “Median (range) nadir of leucocytes over all evaluable cycles” value ([1]; 1.25 mg m-2) of the same compound?
Answer: 2.7 (1.0-10.4) x 109 l-1

Question: What about the “Median (range) nadir of neutrophils over all evaluable cycles” value ([1]; 1.25 mg m-2) of the same compound?
Answer: 1.9 (0.5-8.3) x 109 l-1

Question: What about the “Median (range) nadir of platelets over all evaluable cycles” value ([1]; 1.25 mg m-2) of the same compound?
Answer: 190 (60-328) x 109 1-1

Question: What about the “Nausea, vomiting and diarrhoea exceeding grade II” value ([1]; 1.25 mg m-2) of the same compound?
Answer: one cycle

Question: What about the “Transient elevations in total bilirubin reaching CTC grade II” value ([1]; 1.25 mg m-2) of the same compound?
Answer: 2/15

Question: And the “Leucocytes, CTC grade III toxicity” value ([1]; 1.25 mg m-2, 17 cycles)?
Answer: 6 % of total number of cycles

Question: What about the “Leucocytes, CTC grade IV toxicity” value ([1]; 1.25 mg m-2, 17 cycles) of the same compound?
Answer: 0 % of total number of cycles

Question: And the “Neutrophils, CTC grade III toxicity” value ([1]; 1.25 mg m-2, 17 cycles)?
Answer: 0 % of total number of cycles

Question: And the “Neutrophils, CTC grade IV toxicity” value ([1]; 1.25 mg m-2, 17 cycles)?
Answer: 0 % of total number of cycles

Question: And the “Platelets, CTC grade III toxicity” value ([1]; 1.25 mg m-2, 17 cycles)?
Answer: 0 % of total number of cycles

Question: And the “Platelets, CTC grade IV toxicity” value ([1]; 1.25 mg m-2, 17 cycles)?
Answer: 0 % of total number of cycles

Question: What about the “Patients with grade III/IV haematological toxicity” value ([1]; 1.25 mg m-2, six patients treated) of the same compound?
Answer: one patient

Question: What about the “Death with neutropenic fever / sepsis during febrile neutropenia” value ([1]; 1.5 mg m-2) of the same compound?
Answer: One patient

Question: What about the “Grade III/IV fatigue” value ([1]; 1.5 mg m-2) of the same compound?
Answer: one out of 11 cycles

Question: What about the “Grade III/IV infection” value ([1]; 1.5 mg m-2) of the same compound?
Answer: four out of 11 cycles

Question: What about the “Median (range) nadir of leucocytes over all evaluable cycles” value ([1]; 1.5 mg m-2) of the same compound?
Answer: 1.4 (0.2-7.5) x 109 l-1

Question: And the “Median (range) nadir of neutrophils over all evaluable cycles” value ([1]; 1.5 mg m-2)?
Answer: 0.5 (0.2-7.3) x 109 l-1

Question: And the “Median (range) nadir of platelets over all evaluable cycles” value ([1]; 1.5 mg m-2)?
Answer: 55 (8-119) x 109 1-1

Question: And the “Nausea and vomiting exceeding grade II” value ([1]; 1.5 mg m-2)?
Answer: two out of 11 cycles

Question: And the “Patients with grade III/IV haematological toxicity” value ([1]; 1.5 mg m-2)?
Answer: all five patients

Question: What about the “Transient elevations in total bilirubin reaching CTC grade II” value ([1]; 1.5 mg m-2) of the same compound?
Answer: 3/11

Question: What about the “Neutrophils, CTC grade III toxicity” value ([1]; 1.5 mg m-2, 7 cycles) of the same compound?
Answer: 29 % of total number of cycles

Question: What about the “Neutrophils, CTC grade IV toxicity” value ([1]; 1.5 mg m-2, 7 cycles) of the same compound?
Answer: 43 % of total number of cycles

Question: What about the “Platelets, CTC grade III toxicity” value ([1]; 1.5 mg m-2, 9 cycles) of the same compound?
Answer: 22 % of total number of cycles

Question: What about the “Platelets, CTC grade IV toxicity” value ([1]; 1.5 mg m-2, 9 cycles) of the same compound?
Answer: 11 % of total number of cycles

Question: And the “Leucocytes, CTC grade III toxicity” value ([1]; 1.5 mg m-2, 10 cycles)?
Answer: 40 % of total number of cycles

Question: What about the “Leucocytes, CTC grade IV toxicity” value ([1]; 1.5 mg m-2, 10 cycles) of the same compound?
Answer: 30 % of total number of cycles

Question: And the “Cycles reduced from 1.5 mg m-2 to 1.25 mg m-2 because of haematological toxicity” value ([1]; 1.5 mg m-2, three out of five patients)?
Answer: Four out of 11 cycles

Question: What about the “Patients with neutropenic fever” value ([1]; 3 h i.v. infusion) of the same compound?
Answer: Three patients

Question: What about the “Maximum tolerated dose (MTD)” value ([1]; 3 h i.v. infusion every 4 weeks) of the same compound?
Answer: 1.25 mg m-2

Question: And the “CTC grade III/IV nausea and vomiting” value ([1]; 3 h i.v. infusion, 1.25 mg m-2)?
Answer: 1/18

Question: And the “Transient elevation in transaminases up to CTC grade III” value ([1]; 3 h i.v. infusion, 1.25 mg m-2)?
Answer: 2/16

Question: And the “CTC grade III neutropenia” value ([1]; 3 h i.v. infusion, 1.5 mg m-2)?
Answer: 2/7

Question: What about the “CTC grade III/IV nausea and vomiting” value ([1]; 3 h i.v. infusion, 1.5 mg m-2) of the same compound?
Answer: 2/11

Question: What about the “CTC grade IV neutropenia” value ([1]; 3 h i.v. infusion, 1.5 mg m-2) of the same compound?
Answer: 3/7

Question: And the “Thrombocytopenia grade III” value ([1]; 3 h i.v. infusion, 1.5 mg m-2)?
Answer: 2/9

Question: And the “Thrombocytopenia grade IV” value ([1]; 3 h i.v. infusion, 1.5 mg m-2)?
Answer: 1/9

Question: What about the “Transient elevation in transaminases up to CTC grade III” value ([1]; 3 h i.v. infusion, 1.5 mg m-2) of the same compound?
Answer: 4/11

Question: And the Cardiotoxicity ([1]; 3 h i.v. infusion, all dose levels)?
Answer: No cardiotoxicity

Question: What about the “LVEF at the end of treatment in eight patients” value ([1]; after two to six cycles) of the same compound?
Answer: No significant decreases

Question: And the “Grade III/IV toxicity for haemoglobin” value ([1]; all dose levels)?
Answer: No grade III/IV toxicity

Question: What about the “Phlebitis at the infusion site, nephro- and neurotoxicity” value ([1]; all dose levels) of the same compound?
Answer: No phlebitis at the infusion site and no nephro- or neurotoxicity

Question: What about the “Start of late nausea and vomiting” value ([1]; all dose levels) of the same compound?
Answer: around 4 days after treatment

Question: What about the “Decrease in LVEF, one patient” value ([1]; highest dose level, after three cycles, LVEF remained in the normal range) of the same compound?
Answer: 13%

Question: And the “Time of late haematological toxicity” value ([1]; main toxicity)?
Answer: ~22 day

Question: What about the “Cumulative haematological toxicity for subsequent cycles” value ([1]; overall) of the same compound?
Answer: no cumulative haematological toxicity for subsequent cycles, except for platelets at the highest dose level

Question: And the “Activity against MDR xenografts” value (MDR xenografts)?
Answer: showed activity

Question: What about the Tumour responses [2] of the same compound?
Answer: No tumour response

From publication PMC2374418, “A prolonged methoxymorpholino doxorubicin (PNU-152243 or MMRDX) infusion schedule in patients with solid tumours: a phase 1 and pharmacokinetic study” (British Journal of Cancer, 2000)
